Laboratory results from ChEMBL document CHEMBL1201862, “PubChem BioAssay data set” (2004).
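Each compound was tested at five concentrations against cells in 96-well plates for 48 hours. Here, GI50 denotes the concentration required for 50% inhibition of growth.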 Active and inactive are the calls of the source. Rule as the data show it: active = GI50 up to about 1.1 µM and inactive = higher.

How the values were obtained:
Assay in all cases: NCI tumour cell line growth inhibition, 48 h
ACHN = tested on: ACHN
BT-549 = tested on: BT-549
CAKI-1 = tested on: CAKI-1
HL-60 = tested on: HL-60
IGROV-1 = tested on: IGROV-1
MDA-MB-435 = tested on: MDA-MB-435
MOLT-4 = tested on: MOLT-4
NCI-H23 = tested on: NCI-H23
OVCAR-4 = tested on: OVCAR-4
OVCAR-8 = tested on: OVCAR-8
PC-3 = tested on: PC-3
SNB-75 = tested on: SNB-75
UACC-62 = tested on: UACC-62
UO-31 = tested on: UO-31
A549 = tested on: A549
M14 = tested on: M14
RPMI-8226 = tested on: RPMI-8226
SK-OV-3 = tested on: SK-OV-3

Measured: GI50

NC1=NC(=O)[C@H](CSCc2ccccc2)N1C(=O)OCc1ccccc1
inactive: ACHN > 100 µM | BT-549 > 100 µM | CAKI-1 > 100 µM | HL-60 > 100 µM | IGROV-1 > 100 µM | MDA-MB-435 > 100 µM | MOLT-4 > 100 µM | NCI-H23 > 100 µM | OVCAR-4 > 100 µM | OVCAR-8 > 100 µM | PC-3 > 100 µM | SNB-75 > 100 µM | UACC-62 > 100 µM | UO-31 > 100 µM

CCCCCCCCCCCC(=O)c1c(O)cc(C)oc1=O
inactive: A549 27.8 µM | ACHN 31.5 µM | BT-549 87.1 µM | CAKI-1 40.4 µM | HL-60 42.4 µM | IGROV-1 55.5 µM | M14 79.1 µM | MDA-MB-435 49.5 µM | MOLT-4 23.1 µM | NCI-H23 34.8 µM | OVCAR-8 33.5 µM | PC-3 27.2 µM | RPMI-8226 > 100 µM | SK-OV-3 64.6 µM | SNB-75 36.4 µM | UACC-62 49.7 µM | UO-31 40.6 µM

CCCc1cc(=O)oc2c3c(c4c(c12)OC(C)(C)C=C4)O[C@@H](C)[C@H](C)C3=O
inactive: A549 8.83 µM | ACHN 12.4 µM | BT-549 13.7 µM | CAKI-1 28.9 µM | HL-60 4.99 µM | IGROV-1 12.9 µM | MDA-MB-435 21.9 µM | MOLT-4 6.61 µM | NCI-H23 17 µM | OVCAR-8 17.1 µM | PC-3 15.5 µM | RPMI-8226 3.83 µM | SNB-75 13.6 µM | UO-31 15.8 µM

Nc1nc(NNc2cccc(F)c2)cc(=O)[nH]1
inactive: A549 29.6 µM | ACHN 43.6 µM | BT-549 77.1 µM | HL-60 23.1 µM | IGROV-1 61.9 µM | M14 56.5 µM | MDA-MB-435 25.9 µM | MOLT-4 27.7 µM | NCI-H23 48.3 µM | OVCAR-4 51.6 µM | OVCAR-8 42.4 µM | PC-3 25.2 µM | RPMI-8226 32.2 µM | UO-31 89.1 µM

CS(=O)(=O)O[C@H]1CN2C[C@@H](O)[C@@H](O)[C@H]2[C@H]1CO.[B]
inactive: A549 > 100 µM | ACHN > 100 µM | BT-549 > 100 µM | CAKI-1 > 100 µM | IGROV-1 > 100 µM | M14 > 100 µM | MDA-MB-435 > 100 µM | MOLT-4 > 100 µM | NCI-H23 > 100 µM | OVCAR-4 > 100 µM | OVCAR-8 > 100 µM | PC-3 > 100 µM | RPMI-8226 > 100 µM | SK-OV-3 > 100 µM | UACC-62 > 100 µM | UO-31 > 100 µM

CC(=O)OC12c3ccccc3C(c3ccccc31)C1C(=O)N(c3ccccc3O)C(=O)C12 (centres undefined)
inactive: A549 > 100 µM | ACHN > 100 µM | BT-549 > 100 µM | CAKI-1 > 100 µM | HL-60 76.9 µM | IGROV-1 > 100 µM | M14 > 100 µM | MOLT-4 > 100 µM | NCI-H23 41.6 µM | OVCAR-4 > 100 µM | OVCAR-8 > 100 µM | PC-3 > 100 µM | RPMI-8226 66.5 µM | SK-OV-3 > 100 µM | SNB-75 46.3 µM | UACC-62 > 10 µM | UO-31 50.4 µM

CSc1nc(Nc2ccccc2Cl)c2c(N)nn(C)c2n1
inactive: A549 > 100 µM | ACHN 13.1 µM | BT-549 > 100 µM | CAKI-1 > 100 µM | IGROV-1 > 100 µM | M14 > 100 µM | MDA-MB-435 > 100 µM | MOLT-4 > 100 µM | NCI-H23 > 100 µM | OVCAR-4 > 100 µM | OVCAR-8 16.9 µM | PC-3 > 100 µM | RPMI-8226 > 100 µM | SK-OV-3 > 100 µM | SNB-75 > 10 µM | UACC-62 > 100 µM | UO-31 > 100 µM
